# From paper PMC7640924 (Bioorganic & Medicinal Chemistry Letters, 2020)
# How the values were obtained:
# [1] = tested on: SARS-CoV-2; assay: Anti-SARS-CoV-2 activity, cellular phenotypic screening; type: cell-based; settings: Vero cells
# [2] = Microsomal stability; type: in vitro ADME; settings: human
# [3] = target: hERG (Homo sapiens, UniProt Q12809); assay: hERG inhibition; type: binding
# Chain of hERG (Q12809 whole entry): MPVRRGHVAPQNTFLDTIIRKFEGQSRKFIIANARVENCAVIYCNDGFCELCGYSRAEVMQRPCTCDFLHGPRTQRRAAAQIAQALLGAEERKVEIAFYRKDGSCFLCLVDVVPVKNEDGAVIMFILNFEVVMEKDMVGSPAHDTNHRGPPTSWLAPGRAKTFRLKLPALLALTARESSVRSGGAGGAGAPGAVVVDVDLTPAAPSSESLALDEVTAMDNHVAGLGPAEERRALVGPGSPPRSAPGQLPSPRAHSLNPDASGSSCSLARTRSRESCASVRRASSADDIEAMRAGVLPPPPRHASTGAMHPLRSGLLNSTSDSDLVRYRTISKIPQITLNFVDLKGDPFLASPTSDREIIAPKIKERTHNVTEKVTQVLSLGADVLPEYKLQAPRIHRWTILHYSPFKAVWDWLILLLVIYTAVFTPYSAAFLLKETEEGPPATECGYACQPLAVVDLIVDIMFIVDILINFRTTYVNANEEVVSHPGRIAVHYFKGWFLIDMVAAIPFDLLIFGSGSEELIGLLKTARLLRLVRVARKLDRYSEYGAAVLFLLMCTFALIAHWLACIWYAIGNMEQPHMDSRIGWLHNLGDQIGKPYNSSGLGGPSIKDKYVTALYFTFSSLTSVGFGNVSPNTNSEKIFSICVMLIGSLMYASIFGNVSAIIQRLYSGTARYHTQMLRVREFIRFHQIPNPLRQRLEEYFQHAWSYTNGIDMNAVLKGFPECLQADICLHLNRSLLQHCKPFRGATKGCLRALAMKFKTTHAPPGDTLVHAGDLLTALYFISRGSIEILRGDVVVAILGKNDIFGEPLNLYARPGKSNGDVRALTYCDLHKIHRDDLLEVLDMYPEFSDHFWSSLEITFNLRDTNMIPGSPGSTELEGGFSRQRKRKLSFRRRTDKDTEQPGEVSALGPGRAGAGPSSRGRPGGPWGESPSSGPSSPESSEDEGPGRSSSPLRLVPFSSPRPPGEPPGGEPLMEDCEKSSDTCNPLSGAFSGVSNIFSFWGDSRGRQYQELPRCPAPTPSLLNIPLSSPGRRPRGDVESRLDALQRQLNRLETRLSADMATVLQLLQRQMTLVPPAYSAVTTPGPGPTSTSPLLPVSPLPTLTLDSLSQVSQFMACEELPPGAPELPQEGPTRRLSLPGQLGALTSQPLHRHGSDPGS
Compound,anti-SARS-CoV-2 activity (in words) [1],microsomal stability (in words) [2],hERG binding (in words) [3]
"CCNC(=O)CN1C(C(=O)c2ccccc2)=C(O)c2ccccc2S1(=O)=O [Compound 4f, 2-(3-Benzoyl-4-hydroxy-1,1-dioxido-2H-benzo[e][1,2]thiazin-2-yl)-N-ethylacetamide]",detrimental for anti-SARS-CoV-2 activities,,
"O=C(CN1C(C(=O)c2ccc(F)c(Cl)c2)=C(O)c2ccc(F)cc2S1(=O)=O)Nc1ccc(C(F)(F)F)cc1 [Compound 13c, 2-(3-(3-Chloro-4-fluorobenzoyl)-7-fluoro-4-hydroxy-1,1-dioxido-2H-benzo[e][1,2]thiazin-2-yl)-N-(4-(trifluoromethyl)phenyl)acetamide]",,good microsomal stability,low binding with hERG
"O=C(C1=C(O)c2ccccc2S(=O)(=O)N1Cc1ccccc1)c1ccccc1 [Compound 5a, (2-Benzyl-4-hydroxy-1,1-dioxido-2H-benzo[e][1,2]thiazin-3-yl)(phenyl)methanone]",no anti-SARS-CoV-2 activities,,
"O=C(CN1C(C(=O)c2ccc(F)cc2)=C(O)c2ccccc2S1(=O)=O)Nc1ccccc1 [Compound 4a, 2-(3-(4-fluorobenzoyl)-4-hydroxy-1,1-dioxido-2H-benzo[e][1,2]thiazin-2-yl)-N-phenylacetamide]",no inhibitory effect,,
"O=C(O)/C=C/N1C(C(=O)c2ccc(F)c(Cl)c2)=C(O)c2ccccc2S1(=O)=O [Compound 7, (E)-3-(3-(3-Chloro-4-fluorobenzoyl)-4-hydroxy-1,1-dioxido-2H-benzo[e][1,2]thiazin-2-yl)acrylic acid]",no antiviral effect,,
"N#Cc1cccc(C(=O)C2=C(O)c3ccccc3S(=O)(=O)N2CC(=O)c2ccc(F)c(Cl)c2)c1 [Compound 5b, 3-(2-(2-(3-Chloro-4-fluorophenyl)-2-oxoethyl)-4-hydroxy-1,1-dioxido-2H-benzo[e][1,2]thiazine-3-carbonyl)benzonitrile]",no anti-SARS-CoV-2 activities,,
"O=C(CN1C(C(=O)c2ccc(F)cc2)=C(O)c2ccccc2S1(=O)=O)Nc1ccccc1Cl [Compound 4b, N-(2-Chlorophenyl)-2-(3-(4-fluorobenzoyl)-4-hydroxy-1,1-dioxido-2H-benzo[e][1,2]thiazin-2-yl)acetamide]",no inhibitory effect,,
"N#Cc1ccc(C(=O)C2=C(O)c3ccccc3S(=O)(=O)N2CC(=O)c2ccc(F)c(Cl)c2)cc1 [Compound 5c, 4-(2-(2-(3-Chloro-4-fluorophenyl)-2-oxoethyl)-4-hydroxy-1,1-dioxido-2H-benzo[e][1,2]thiazine-3-carbonyl)benzonitrile]",no anti-SARS-CoV-2 activities,,
